Source: patent US20230124361A1, “SMALL MOLECULE STING ANTAGONISTS” (CURADEV PHARMA PVT. LTD., priority 2020, published 2023)

Molecular target: T1, STING (Homo sapiens, UniProt Q86WV6, G230A/H232R/R293Q/R71H)
T1 construct: host or cells: THP1-Dual cells (human THP-1 monocyte line with Lucia/SEAP reporters)
Assay: Reporter gene expression assay in THP1-Dual cells (IRF pathway Lucia luciferase, 2',3'-cGAMP stimulation)
Type: cell-based
Conditions: 10 min preincubation, 5 μM 2',3'-cGAMP, 20 hr, IRF reporter QUANTI-Luc, read-out: THP-1 (HAQ) Activity
Summary of the method: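 THP1-Dual cells preincubated 10 min with compound, then stimulated with 5 μM 2′,3′-cGAMP for 20 hr. Secreted Lucia luciferase (IRF reporter) measured in supernatant by luminescence; IC50 reported as ranges (A ≤1 μM, B >1–≤10 μM, C >10 μM).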

T1 sequence (Q86WV6 whole entry R71H/G230A/H232R/R293Q): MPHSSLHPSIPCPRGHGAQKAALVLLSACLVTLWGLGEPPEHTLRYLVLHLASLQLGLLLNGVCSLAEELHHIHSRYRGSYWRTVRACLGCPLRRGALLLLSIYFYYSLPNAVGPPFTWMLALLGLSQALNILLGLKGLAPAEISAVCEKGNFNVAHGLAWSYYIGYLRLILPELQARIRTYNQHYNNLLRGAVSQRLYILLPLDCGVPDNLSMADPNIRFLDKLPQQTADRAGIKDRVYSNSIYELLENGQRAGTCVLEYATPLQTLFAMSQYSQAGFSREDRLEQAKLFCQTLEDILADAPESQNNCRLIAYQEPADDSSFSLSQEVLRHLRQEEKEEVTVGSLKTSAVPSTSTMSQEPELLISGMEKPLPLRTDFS

Compound | IC50 [µM]
O=C(Nc1ccc2c(c1)OCC(=O)N2Cc1ccccc1)Nc1ccn(-c2ccccc2)n1 [Example 138, 1-(4-benzyl-3-oxo-3,4-dihydro-2H-benzo[b][1, 4]oxazin-7-yl)-3-(1-phenyl-1H-pyrazol-3-yl)urea] | > 10
COC(=O)c1ccccc1CN1C(=O)COc2cc(NC(=O)Nc3ccc4cc[nH]c4c3)ccc21 [Example 140, methyl 2-((7-(3-(1H-indol-6-yl)ureido)-3-oxo-2,3-dihydro-4H-benzo[b][1, 4]oxazin-4-yl)methyl) benzoate] | 1 to 10
O=C(Nc1ccc2c(c1)NCC2)Nc1ccc2c(c1)OCC(=O)N2Cc1ccccc1 [Example 142, 1-(4-benzyl-3-oxo-3,4-dihydro-2H-benzo[b][1, 4]oxazin-7-yl)-3-(indolin-6-yl)urea] | 1 to 10
NC(=O)c1ccccc1CN1C(=O)COc2cc(NC(=O)Nc3ccc4cc[nH]c4c3)ccc21 [Example 144, 2-((7-(3-(1H-indol-6-yl)ureido)-3-oxo-2,3-dihydro-4H-benzo[b][1, 4]oxazin-4-yl)methyl) benzamide] | 1 to 10
O=C(Nc1ccc2c(c1)OCC(=O)N2CC1COCCO1)Nc1ccc2cc[nH]c2c1 (stereo not drawn) [Example 145, l-(4-((1,4-dioxan-2-yl)methyl)-3-oxo-3,4-dihydro-2H-benzo[b][1, 4]oxazin-7-yl)-3-(1H-indol-6-yl)urea] | 1 to 10
O=C(Nc1ccc2c(c1)OCC(=O)N2Cc1ccccn1)Nc1ccc2cc[nH]c2c1 [Example 149, 1-(iH-indol-6-yl)-3-(3-oxo-4-(pyridin-2-ylmethyl)-3,4-dihydro-2H-benzo[b][1, 4]oxazin-7-yl)urea] | 1 to 10
O=C(Nc1ccc2c(c1)OCC(=O)N2CC1CCOC1)Nc1ccc2cc[nH]c2c1 (stereo not drawn) [Example 150, 1-(1H-indol-6-yl)-3-(3-oxo-4-((tetrahydrofuran-3-yl)methyl)-3,4-dihydro-2H-benzo [b][1, 4]oxazin-7-yl)urea] | 1 to 10
O=C(Nc1ccc2c(c1)OCC(=O)N2Cc1ccc(CO)cc1)Nc1ccc2cc[nH]c2c1 [Example 153, 1-(4-(4-(hydroxymethyl)benzyl)-3-oxo-3,4-dihydro-2H-benzo[b][1, 4]oxazin-7-yl)-3-(1H-indol-6-yl)urea] | > 10
O=C(Nc1ccc2c(c1)OCC(=O)N2Cc1ccc[nH]c1=O)Nc1ccc2cc[nH]c2c1 [Example 158, 1-(1H-indol-6-yl)-3-(3-oxo-4-((2-oxo-1,2-dihydropyridin-3-yl)methyl)-3,4-dihydro-2H-benzo[b][1, 4]oxazin-7-yl)urea] | > 10
O=C(Nc1ccc2c(c1)OCC(=O)N2Cc1ccn[nH]1)Nc1ccc2cc[nH]c2c1 [Example 161, 1-(4-((1H-pyrazol-5-yl)methyl)-3-oxo-3,4-dihydro-2H-benzo[b][1, 4]oxazin-7-yl)-3-(1H-indol-6-yl)urea] | > 10
O=C(Nc1ccc2cc[nH]c2c1)Nc1cc2c(cc1Br)N(Cc1ccccc1)C(=O)CO2 [Example 166, 1-(4-benzyl-6-bromo-3-oxo-3,4-dihydro-2H-benzo[b][1, 4]oxazin-7-yl)-3-(1H-indol-6-yl)urea] | 1 to 10
O=C(Nc1ccc2c(c1)N(Cc1ccccc1)CC[S+]2[O-])Nc1ccc2cc[nH]c2c1 (stereo not drawn) [Example 167, 1-(4-benzyl-1-oxido-3,4-dihydro-2H-benzo[b][1, 4]thiazin-6-yl)-3-(1H-indol-6-yl)urea] | > 10
O=C(Nc1ccc2c(c1)N(Cc1c(F)cccc1Cl)CCO2)Nc1ccc2cc[nH]c2c1 [Example 169, 1-(4-(2-chloro-6-fluorobenzyl)-3,4-dihydro-2H-benzo[b][1, 4]oxazin-6-yl)-3-(1H-indol-6-yl)urea] | ≤ 1
O=C(Nc1ccc2c(c1)SCCN2Cc1c(F)cccc1Cl)Nc1ccc2cc[nH]c2c1 [Example 171, 1-(4-(2-chloro-6-fluorobenzyl)-3,4-dihydro-2H-benzo[b][1, 4]thiazin-7-yl)-3-(1H-indol-6-yl)urea] | ≤ 1

Results, then the compound that gave them:

IC50 [µM] | Compound
1 to 10 | O=C(Nc1ccc2c(c1)OCC(=O)N2Cc1ccccc1)NC1CCc2ccccc2C1 (stereo not drawn) [Example 135, 1-(4-benzyl-3-oxo-3,4-dihydro-2H-benzo[b][1, 4]oxazin-7-yl)-3-(1,2,3,4-tetrahydro-naphthalen-2-yl)urea]
1 to 10 | O=C(Nc1ccc2c(c1)OCC(=O)N2Cc1ccccc1)NC1Cc2ccccc2C1 [Example 136, 1-(4-benzyl-3-oxo-3,4-dihydro-2H-benzo[b][1, 4]oxazin-7-yl)-3-(2,3-dihydro-1H-inden-2-yl)urea]
1 to 10 | O=C(Nc1ccc2c(c1)OCC(=O)N2Cc1ccc(O)cc1)Nc1ccc2cc[nH]c2c1 [Example 139, 1-(4-(4-hydroxybenzyl)-3-oxo-3,4-dihydro-2H-benzo[b][1, 4]oxazin-7-yl)-3-(1H-indol-6-yl)urea]
1 to 10 | O=C(Nc1ccc2c(c1)OCC(=O)N2Cc1ccccc1)N1CCc2ccccc2C1 [Example 141, N-(4-benzyl-3-oxo-3,4-dihydro-2H-benzo[b][1, 4]oxazin-7-yl)-3,4-dihydro-isoquinoline-2(1H)-carboxamide]
> 10 | O=C(Nc1ccc2c(c1)OCC(=O)N2Cc1ccccc1C(=O)O)Nc1ccc2cc[nH]c2c1 [Example 143, 2-((7-(3-(1H-indol-6-yl)ureido)-3-oxo-2,3-dihydro-4H-benzo[b][1,4]oxazin-4-yl)methyl)benzoic acid]
1 to 10 | O=C(Nc1ccc2c(c1)OCC(=O)N2CC1CCCO1)Nc1ccc2cc[nH]c2c1 (stereo not drawn) [Example 146, 1-(1H-indol-6-yl)-3-(3-oxo-4-((tetrahydro-furan-2-yl)methyl)-3,4-dihydro-2H-benzo[b][1, 4]oxazin-7-yl)urea]
1 to 10 | O=C(Nc1ccc2c(c1)OCC(=O)N2Cc1ccncc1)Nc1ccc2cc[nH]c2c1 [Example 147, 1-(iH-indol-6-yl)-3-(3-oxo-4-(pyridin-4-ylmethyl)-3,4-dihydro-2H-benzo[b][1, 4]oxazin-7-yl)urea]
1 to 10 | O=C(Nc1ccc2c(c1)OCC(=O)N2Cc1cccnc1)Nc1ccc2cc[nH]c2c1 [Example 148, 1-(1H-indol-6-yl)-3-(3-oxo-4-(pyridin-3-ylmethyl)-3,4-dihydro-2H-benzo [b][1, 4]oxazin-7-yl)urea]
> 10 | O=C(Nc1ccc2c(c1)OCC(=O)N2Cc1nnco1)Nc1ccc2cc[nH]c2c1 [Example 151, 1-(4-((1,3,4′-oxadiazol-2-yl)methyl)-3-oxo-3,4-dihydro-2H-benzo[b][1, 4]oxazin-7-yl)-3-(1H-indol-6-yl)urea]
1 to 10 | O=C(Nc1ccc2c(c1)OCC(=O)N2Cc1cccc(O)c1)Nc1ccc2cc[nH]c2c1 [Example 152, 1-(4-(3-hydroxybenzyl)-3-oxo-3,4-dihydro-2H-benzo[b][1, 4]oxazin-7-yl)-3-(1H-indol-6-yl)urea]
> 10 | O=C(Nc1ccc2c(c1)OCC(=O)N2Cc1cnccn1)Nc1ccc2cc[nH]c2c1 [Example 154, 1-(1H-indol-6-yl)-3-(3-oxo-4-(pyrazin-2-ylmethyl)-3,4-dihydro-2H-benzo[b][i, 4]oxazin-7-yl)urea]
> 10 | NC(=O)c1cccc(CN2C(=O)COc3cc(NC(=O)Nc4ccc5cc[nH]c5c4)ccc32)c1 [Example 155, 3-((7-(3-(1H-indol-6-yl)ureido)-3-oxo-2,3-dihydro-4H-benzo[b][1, 4]oxazin-4-yl)methyl) benzamide]
1 to 10 | O=C(Nc1ccc2c(c1)OCC(=O)N2Cc1cccc(CO)c1)Nc1ccc2cc[nH]c2c1 [Example 156, 1-(4-(3-(hydroxymethyl)benzyl)-3-oxo-3,4-dihydro-2H-benzo[b][1, 4]oxazin-7-yl)-3-(1H-indol-6-yl)urea]
1 to 10 | N#CCN1C(=O)COc2cc(NC(=O)Nc3ccc4cc[nH]c4c3)ccc21 [Example 157, 1-(4-(cyanomethyl)-3-oxo-3,4-dihydro-2H-benzo[b][1, 4]oxazin-7-yl)-3-(1H-indol-6-yl)urea]
1 to 10 | O=C(Nc1ccc2c(c1)OCC(=O)N2Cc1ccccc1O)Nc1ccc2cc[nH]c2c1 [Example 159, 1-(4-(2-hydroxybenzyl)-3-oxo-3,4-dihydro-2H-benzo [b][1, 4]oxazin-7-yl)-3-(1H-indol-6-yl)urea]
1 to 10 | O=C(Nc1ccc2c(c1)OCC(=O)N2Cc1ccncn1)Nc1ccc2cc[nH]c2c1 [Example 160, 1-(1H-indol-6-yl)-3-(3-oxo-4-(pyrimidin-4-ylmethyl)-3,4-dihydro-2H-benzo[b][1, 4]oxazin-7-yl)urea]
> 10 | O=C(Nc1ccc2c(c1)OCC(=O)N2Cc1cnc[nH]1)Nc1ccc2cc[nH]c2c1 [Example 162, 1-(4-((1H-imidazol-5-yl)methyl)-3-oxo-3,4-dihydro-2H-benzo[b][1, 4]oxazin-7-yl)-3-(1H-indol-6-yl)urea]
> 10 | O=C(Nc1ccc2c(c1)OCC(=O)N2Cc1ncno1)Nc1ccc2cc[nH]c2c1 [Example 163, 1-(4-((1,2,4-oxadiazol-5-yl)methyl)-3-oxo-3,4-dihydro-2H-benzo[b][1,4]oxazin-7-yl)-3-(1H-indol-6-yl)urea]
1 to 10 | O=C(Nc1ccc2c(c1)OCC(=O)N2Cc1ccon1)Nc1ccc2cc[nH]c2c1 [Example 164, 1-(1H-indol-6-yl)-3-(4-(isoxazol-3-ylmethyl)-3-oxo-3,4-dihydro-2H-benzo[b][1, 4]oxazin-7-yl)urea]
1 to 10 | NC(=O)c1cc2c(cc1NC(=O)Nc1ccc3cc[nH]c3c1)OCC(=O)N2Cc1ccccc1 [Example 165, 7-(3-(H-indol-6-yl)ureido)-4-benzyl-3-oxo-3,4-dihydro-2H-benzo[b][1, 4]oxazine-6-carboxamide]
> 10 | CN1CCSc2ccc(NC(=O)Nc3ccc4cc[nH]c4c3)cc21 [Example 168, 1-(1H-indol-6-yl)-3-(4-methyl-3,4-dihydro-2H-benzo[b][1, 4]thiazin-6-yl)urea]
1 to 10 | O=C(Nc1ccc2c(c1)OCCN2Cc1c(F)cccc1Cl)Nc1ccc2cc[nH]c2c1 [Example 170, 1-(4-(2-chloro-6-fluorobenzyl)-3,4-dihydro-2H-benzo[b][1, 4]oxazin-7-yl)-3-(1H-indol-6-yl)urea]
